Measured values from ChEMBL document CHEMBL3885861, “Open TG-GATES”.

Species on record: Rattus norvegicus
Experiment: Open TG-GATES - Regimen: Single
Type: toxicity, organism-based, Sprague-Dawley
Set-up: regimen Single, gender Male, age 6 weeks
Details: in vivo, iv, 0 mg/kg, route intravenous injection, dose level Control; for Bas / Eos / Fbg / Ht / Lym / MCH / MCHC / MCV / Mono / PT / Plat / RBC / Ret / Neu: tissue Blood; for KIDNEY_L / KIDNEY_R / KIDNEY_TOTAL: tissue Kidney; for LIVER: tissue Liver

Work on COc1cccc2c1C(=O)c1c(O)c3c(c(O)c1C2=O)C[C@@](O)(C(=O)CO)C[C@@H]3O[C@H]1C[C@H](N)[C@H](O)[C@H](C)O1 [DOXORUBICIN] yielded a TERMINAL_BW (3 h) of 210.4 g, a Bas (3 h) of 0% and an Eos (3 h) of 0.8%. For the same compound, the Fbg (3 h) was 277.8 mg/dL, the Ht (3 h) was 39.4% and the Lym (3 h) was 84.4%. For the same compound, the MCH (3 h) was 22 pg, the MCHC (3 h) was 34.9% and the MCV (3 h) was 63.1 fL. The Mono (3 h) was 2.6%, the PT (3 h) was 16.3 s and the Plat (3 h) was 122.6 x10_4/uL. The RBC (3 h) was 625 x10_4/ul, the Ret (3 h) was 6.3% and the KIDNEY_L (3 h) was 0.9 g. It also gave a KIDNEY_R (3 h) of 0.9 g, a KIDNEY_TOTAL (3 h) of 1.8 g and an LIVER (3 h) of 9.4 g. For the same compound, the ALP (3 h, tissue Plasma) was 1425.2 IU/L, the ALT (3 h, tissue Plasma) was 43.6 IU/L and the AST (3 h, tissue Plasma) was 77 IU/L. For the same compound, the CRE (3 h, tissue Plasma) was 0.2 mg/dL, the DBIL (3 h, tissue Plasma) was 0 mg/dL and the GLC (3 h, tissue Plasma) was 181.8 mg/dL. The K (3 h, tissue Plasma) was 4.5 meq/L, the LDH (3 h, tissue Plasma) was 185.6 IU/L and the Na (3 h, tissue Plasma) was 142.2 meq/L. The RALB (3 h, tissue Plasma) was 3 g/dL, the TBIL (3 h, tissue Plasma) was 0.008 mg/dL and the TC (3 h, tissue Plasma) was 77.6 mg/dL. It also gave a TG (3 h, tissue Plasma) of 87.2 mg/dL, a TP (3 h, tissue Plasma) of 5.2 g/dL and a gamma-GTP (3 h, tissue Plasma) of 1.2 IU/L. For the same compound, the TERMINAL_BW (6 h) was 211.5 g, the Bas (6 h) was 0% and the Eos (6 h) was 0.8%. For the same compound, the Fbg (6 h) was 292.4 mg/dL, the Ht (6 h) was 38.3% and the Lym (6 h) was 76%. The MCH (6 h) was 21.5 pg, the MCHC (6 h) was 34.4% and the MCV (6 h) was 62.4 fL. For the same compound, the Mono (6 h) was 2.8%, the Neu (6 h) was 19.2% and the PT (6 h) was 16.3 s. The Plat (6 h) was 127.3 x10_4/uL, the RBC (6 h) was 614.6 x10_4/ul and the Ret (6 h) was 6.9%. For the same compound, the KIDNEY_L (6 h) was 0.9 g, the KIDNEY_R (6 h) was 0.9 g and the KIDNEY_TOTAL (6 h) was 1.8 g. The LIVER (6 h) was 8.9 g, the ALP (6 h, tissue Plasma) was 1252 IU/L and the ALT (6 h, tissue Plasma) was 46.6 IU/L. It also gave an AST (6 h, tissue Plasma) of 90.2 IU/L, a CRE (6 h, tissue Plasma) of 0.2 mg/dL and a DBIL (6 h, tissue Plasma) of 0.004 mg/dL. For the same compound, the GLC (6 h, tissue Plasma) was 172.2 mg/dL, the K (6 h, tissue Plasma) was 4.3 meq/L and the Na (6 h, tissue Plasma) was 140.6 meq/L. The RALB (6 h, tissue Plasma) was 2.9 g/dL, the TBIL (6 h, tissue Plasma) was 0.026 mg/dL and the TC (6 h, tissue Plasma) was 71.8 mg/dL. It also gave a TG (6 h, tissue Plasma) of 63 mg/dL, a TP (6 h, tissue Plasma) of 5.1 g/dL and a gamma-GTP (6 h, tissue Plasma) of 1.6 IU/L. For the same compound, the TERMINAL_BW (9 h) was 208 g, the Bas (9 h) was 0% and the Eos (9 h) was 0.6%. The Fbg (9 h) was 298.2 mg/dL, the Ht (9 h) was 38.9% and the Lym (9 h) was 77.8%. It also gave an MCH (9 h) of 21.6 pg, an MCHC (9 h) of 34.2% and an MCV (9 h) of 63.2 fL. The Mono (9 h) was 2.8%, the PT (9 h) was 16.4 s and the Plat (9 h) was 116.3 x10_4/uL. The RBC (9 h) was 615.4 x10_4/ul, the Ret (9 h) was 6.5% and the KIDNEY_L (9 h) was 0.9 g. It also gave a KIDNEY_R (9 h) of 1 g, a KIDNEY_TOTAL (9 h) of 1.9 g and an LIVER (9 h) of 8.6 g. The ALP (9 h, tissue Plasma) was 1422.6 IU/L, the ALT (9 h, tissue Plasma) was 39.8 IU/L and the AST (9 h, tissue Plasma) was 77.6 IU/L. It also gave a CRE (9 h, tissue Plasma) of 0.2 mg/dL, a DBIL (9 h, tissue Plasma) of 0 mg/dL and a GLC (9 h, tissue Plasma) of 201.8 mg/dL. For the same compound, the K (9 h, tissue Plasma) was 4.3 meq/L, the Na (9 h, tissue Plasma) was 140.2 meq/L and the RALB (9 h, tissue Plasma) was 2.9 g/dL. The TBIL (9 h, tissue Plasma) was 0.01 mg/dL, the TC (9 h, tissue Plasma) was 63 mg/dL and the TG (9 h, tissue Plasma) was 65.6 mg/dL. The TP (9 h, tissue Plasma) was 5.3 g/dL, the gamma-GTP (9 h, tissue Plasma) was 1.4 IU/L and the TERMINAL_BW (24 h) was 223.8 g. The Bas (24 h) was 0%, the Eos (24 h) was 1% and the Fbg (24 h) was 298 mg/dL. It also gave a Ht (24 h) of 37.5%, a Lym (24 h) of 77.6% and an MCH (24 h) of 22.4 pg. The MCHC (24 h) was 36%, the MCV (24 h) was 62.2 fL and the Mono (24 h) was 4%. For the same compound, the Neu (24 h) was 16.4%, the PT (24 h) was 16.4 s and the Plat (24 h) was 117.3 x10_4/uL. The RBC (24 h) was 602.6 x10_4/ul, the Ret (24 h) was 7% and the KIDNEY_L (24 h) was 0.9 g. For the same compound, the KIDNEY_R (24 h) was 1 g, the KIDNEY_TOTAL (24 h) was 1.9 g and the ALP (24 h, tissue Plasma) was 1402 IU/L. The ALT (24 h, tissue Plasma) was 41 IU/L, the AST (24 h, tissue Plasma) was 68 IU/L and the CRE (24 h, tissue Plasma) was 0.2 mg/dL. It also gave a DBIL (24 h, tissue Plasma) of 0.002 mg/dL, a GLC (24 h, tissue Plasma) of 191.2 mg/dL and a K (24 h, tissue Plasma) of 4.5 meq/L. It also gave a Na (24 h, tissue Plasma) of 141.6 meq/L, an RALB (24 h, tissue Plasma) of 3.1 g/dL and a TBIL (24 h, tissue Plasma) of 0.014 mg/dL. For the same compound, the TC (24 h, tissue Plasma) was 77.6 mg/dL, the TG (24 h, tissue Plasma) was 113 mg/dL and the TP (24 h, tissue Plasma) was 5.5 g/dL. The gamma-GTP (24 h, tissue Plasma) was 1.4 IU/L.
